Article doi:10.1101/2024.09.13.612887 (2024)

System: F. ulcerans ZTP riboswitch ITC construct RNA (aptamer domain) (RNA, riboswitch) UAUCAGUUAUAUGACUGACGGAACGUGGAAUUAACCACAUGAAGUAUAACGAUGACAAUGCCGACCGUCUGGGCG
Assay: ITC
Details: 150 mM KCl, 10 mM MgCl2; 50 mM HEPES-KOH pH 7.4, 37 °C; table value, text b16 says KD >30 μM

Compound | KD [µM]
COc1ccncc1-n1cnc(C(N)=O)c1N | 4.16 ± 0.68

Same assay, conditions: 150 mM KCl, 10 mM MgCl2; 50 mM HEPES-KOH pH 7.4, up to 3% DMSO, 37 °C

Compound | KD [µM]
NC(=O)c1ncn(-c2cncnc2)c1N | 1.22 ± 0.45
NC(=O)c1ncn(-c2ccccc2)c1N | 1.84 ± 0.41
NC(=O)c1ncn(-c2cccc(O)c2)c1N | 2.47 ± 0.37
NC(=O)c1ncn(-c2cnc3ncccc3c2)c1N | 0.778 ± 0.28
NC(=O)c1ncn(-c2ccc(-c3cnc[nH]3)cc2)c1N | 1.46 ± 0.21
NC(=O)c1ncn(-c2ccc3cccnc3c2)c1N | 1.36 ± 0.17
CNc1ccc(-n2cnc(C(N)=O)c2N)cn1 | 2.40 ± 0.36
NC(=O)c1ncn(-c2ccc3ncccc3c2)c1N | 1.28 ± 0.26
NC(=O)c1ncn(-c2ccc3cc[nH]c3c2)c1N | 4.99 ± 0.64
NC(=O)c1ncn(-c2ccc(-c3ncc[nH]3)nc2)c1N | 3.18 ± 0.44
NC(=O)c1ncn(-c2cnc3cccnc3c2)c1N | 0.864 ± 0.21
NC(=O)c1cccc(-n2cnc(C(N)=O)c2N)c1 | 3.52 ± 0.60
NC(=O)c1ncn(-c2ccc(Cl)nc2)c1N | 2.19 ± 1.4
NC(=O)c1ncn(-c2ccc3[nH]ccc3c2)c1N | 3.20 ± 1.3
NC(=O)c1ncn(Cc2ccncc2)c1N | 15.0 ± 7.1
COc1ccc(-n2cnc(C(N)=O)c2N)cn1 | 2.45 ± 0.44
NC(=O)c1ncn(-c2ccc(NCc3ccccc3)nc2)c1N | 13.8 ± 1.5

Same assay, conditions: 150 mM KCl, 10 mM MgCl2; 50 mM HEPES-KOH pH 7.4, up to 3% DMSO, 37 °C; N.B. (>30 μM or not measurable)

Compound | KD [µM]
Cc1ncccc1-n1cnc(C(N)=O)c1N | > 30
NC(=O)c1ncn(Cc2cnccn2)c1N | > 30
NC(=O)c1ncn(-c2cccc3cccnc23)c1N | > 30
NC(=O)c1cn(-c2ccncc2)cn1 | > 30
NC(=O)c1ncn([C@H]2CCCNC2)c1N | > 30
NC(=O)c1ncn(Cc2ccccc2)c1N | > 30
NC(=O)c1ncn([C@@H]2CCCNC2)c1N | > 30

Same assay, conditions: 150 mM KCl, 10 mM MgCl2; 50 mM HEPES-KOH pH 7.4, up to 3% DMSO, 37 °C; text prints 13.7 ± 7.8

Compound | KD [µM]
NC(=O)c1nnn(-c2cccnc2)c1N | 13.5 ± 7.85

System: S. ondontolytica ZTP riboswitch used for crystallography (64-nt) (RNA, riboswitch, 5'-hydroxyl (hammerhead-cleaved, lacks 5'-phosphate)) GGGUCGUGACUGGCGAACAGGUGGGAAACCACCGGGGAGCGACCCUUGCCGCCCGCCUGGGCAA
Assay: X-ray crystallography
Details: Mg2+; co-crystal structure, 2.2 Å, partially refined

binding | Compound
yes | NC(=O)c1ncn(-c2cnc3ncccc3c2)c1N

Same assay, conditions: Mg2+; co-crystal structure, 2.4 Å

binding | Compound
yes | NC(=O)c1ncn(-c2cccnc2)c1N

System: F. ulcerans ZTP riboswitch SPR construct RNA (RNA, riboswitch) UAUCAGUUAUAUGACUGACGGAACGUGGAAUUAACCACAUGAAGUAUAACGAUGACAAUGCCGACCGUCUGGGCGUUCAUUAGCGGUAUUCCGGAAC …
Assay: SPR
Details: 150 mM KCl, 10 mM MgCl2; 50 mM HEPES-KOH pH 7.4, 0.005% Tween-20, 5% DMSO; apparent, no saturation, exceeds 1:1 Rmax

Compound | KD
NC(=O)c1ncn(-c2ccc(-c3cnc[nH]3)cc2)c1N | ~ 900 nM
